Laboratory results: publication PMC6471062, “Suppression of the Ubiquitin Pathway by Small Molecule Binding to Ubiquitin Enhances Doxorubicin Sensitivity of the Cancer Cells” (Molecules, 2019)

Assays:
E2-25K = assay: In vitro K48 polyubiquitination reaction with E2-25K; format: biochemical; settings: purified E2-25K, increasing CR (50–500 µM), 500 µM ubiquitin, 37 °C
Method: (§1) Figure 5 CR inhibits K48- and K63- polyubiquitination in vitro. (a) Interacting surface of ubiquitin when complex with E2-25K and Ubc13 compared with the surface used for CR binding. (b,c) CR inhibits K48- (b) and K63-ubiquitinations (c). First, mono ubiquitin was mixed with UBA1, E2-25K or complex Mms2/Ubc13, and 0–500 µM CR in the presence or absence of ATP regeneration system. Then the mixture was incubated at 37 °C for […]. The reaction was stopped by adding 5X SDS loading buffer and the results were analyzed with 15% SDS-PAGE.
(§2) For in vitro ubiquitination assays, 500 µM of ubiquitin was used for each ubiquitination reaction as described previously, in the absence or presence of 50–500 µM of CR. The reactions were incubated at 37 °C for 4 h and 16 h for K63- and K48 polyubiquitination respectively. The reaction was terminated by adding 5X SDS sampling buffer and results were subjected to 15% SDS-PAGE followed by Coomassie Blue staining for analyses. […] The generation of GST-ubiquitin from GST-Ubiquitin-HA as the mobility shifts were analyzed on 12.5% SDS-PAGE visualized by Coomassie blue staining. Band intensities were quantified by ImageJ [55] and used to generate the IC50 curves (log inhibitor vs. normalized response with variable slope) by GraphPad Prism version 6.0 for Windows (GraphPad Software, San Diego, CA, USA, www.graphpad.com).

USP5 (Homo sapiens) = assay: Deubiquitination assay, cleavage of GST-Ubiquitin-HA by USP5 (SDS-PAGE band intensity); format: biochemical
Sequence of USP5 (Homo sapiens) (P45974 2-858, other chains not shown): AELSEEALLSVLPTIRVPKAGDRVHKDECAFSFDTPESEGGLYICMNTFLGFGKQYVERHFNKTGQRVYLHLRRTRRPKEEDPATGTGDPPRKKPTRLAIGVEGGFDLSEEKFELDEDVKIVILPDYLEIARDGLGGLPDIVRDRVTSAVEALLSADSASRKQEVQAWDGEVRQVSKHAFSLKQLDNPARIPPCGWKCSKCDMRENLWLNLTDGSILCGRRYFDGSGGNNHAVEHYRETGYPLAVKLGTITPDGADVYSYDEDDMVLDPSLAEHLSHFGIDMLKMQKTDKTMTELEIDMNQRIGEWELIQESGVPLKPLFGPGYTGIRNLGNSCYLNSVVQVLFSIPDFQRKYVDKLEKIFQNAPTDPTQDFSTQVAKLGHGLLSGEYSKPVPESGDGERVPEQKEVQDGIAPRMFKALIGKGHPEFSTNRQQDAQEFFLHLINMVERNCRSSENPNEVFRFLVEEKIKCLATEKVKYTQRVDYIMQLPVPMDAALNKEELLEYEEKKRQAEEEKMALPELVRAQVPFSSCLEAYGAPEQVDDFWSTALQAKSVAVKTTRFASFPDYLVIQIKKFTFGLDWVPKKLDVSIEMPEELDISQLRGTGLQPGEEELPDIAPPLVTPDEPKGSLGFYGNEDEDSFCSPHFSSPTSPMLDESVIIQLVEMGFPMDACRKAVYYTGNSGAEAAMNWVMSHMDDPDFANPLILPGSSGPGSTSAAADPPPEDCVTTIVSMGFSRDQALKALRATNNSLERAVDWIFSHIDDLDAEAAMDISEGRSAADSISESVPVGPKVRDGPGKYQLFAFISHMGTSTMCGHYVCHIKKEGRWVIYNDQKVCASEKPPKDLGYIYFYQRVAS
Method: as §2, with “CR.” for “CR. The reactions were incubated at 37 °C for 4 h and 16 h for K63- and K48 polyubiquitination respectively. The reaction was terminated by adding 5X SDS sampling buffer and results were subjected to 15% SDS-PAGE followed by Coomassie Blue staining for analyses.”

[1] = Cell membrane permeability (inferred from intracellular action); settings: in contrast to CSB6B; inferred from intracellular effect on ubiquitination
Ubc13 = assay: In vitro K63 polyubiquitination reaction with Ubc13; format: biochemical; settings: purified Ubc13 (Mms2/Ubc13), increasing CR (50–500 µM), 500 µM ubiquitin, 37 °C
Method: as §1, §2

Nc1c(/N=N/c2ccc(-c3ccc(/N=N/c4cc(S(=O)(=O)O)c5ccccc5c4N)cc3)cc2)cc(S(=O)(=O)O)c2ccccc12 [CR, Congo red]
Inhibition of K48 polyubiquitination (E2-25K): effectively inhibited by CR in a dose-dependent manner | IC50 (USP5 (Homo sapiens)): 13.4 ± 2.64 µM | Cell permeability [1]: better cell permeability | Inhibition of K63 polyubiquitination (Ubc13): effectively inhibited by CR in a dose-dependent manner
